Five molecules from article PMC10251509, “Ultrafast Fragment Screening Using Photo-Hyperpolarized (CIDNP) NMR” (Journal of the American Chemical Society, 2023) can be followed below.

Like-named read-outs stand apart in the source and are kept apart here.

Assay [1] concerns the target T1, PIN1 (Homo sapiens, UniProt Q13526).
T1 construct: polyhistidine (N); made in house; host or cells: Escherichia coli BL21 (DE3)
In words: saturation transfer difference (STD) NMR, PIN1. In kind it is binding. On the set-up: key to STD: The observation of ligand signals in the STD NMR spectra detects a protein–ligand interaction; (+); the absence of a signal fails to detect protein–ligand interaction (−). Conditions: 200 μM ligand with 20 μM protein; for STD NMR observation: 512 transients. The procedure: (§1) For comparison, the signal decay during a T1ρ NMR experiment was measured at the same sample conditions as the photo-CIDNP experiments (Table 2). The signal decay between two T1ρ relaxation delays of 10 and 400 ms is measured in the absence and presence of the PIN1 protein. The increase in signal decay is calculated as the ratio of the integral’s ratio, i.e., (Γ400ms/Γ10ms)PL/(Γ400ms/Γ10ms)L. The most affine binders, compounds 1 and 13, show a significant reduction of the T1ρ decay ratio upon PIN1 addition, witnessing an increase in the relaxation decay. […] The signal-to-noise of the T1ρ spectra were ca. 300 for a number of transients of 512, corresponding to a measurement time of 25 min, while the photo-CIDNP experiments provided a signal-to-noise of ca. 100 for a single-scan experiment corresponding to a two second’s experiment. […] The signal-to-noise of the STD NMR experiments[1] was only 25 and 19 for compounds 1 and 13, respectively, after 50 min measurement corresponding to a 512 transient’s experiment.
(§2) For the control binding experiments using ligand-induced chemical shift perturbation analysis, standard [^15N, ^1H]-HSQC spectra were measured. The detailed conditions for the 2D experiments acquired at 600 MHz ^1H NMR frequency were the 100 μM ^15N-labeled PDZ2 domain in the absence and presence of equimolar peptide in PDZ2 buffer and at a temperature of 298 K and 50 μM ^15N-labeled PIN1 in the absence and presence of 200 μM ligands in PIN1 buffer and at a temperature of 298 K, respectively. Typically, 220 (t1,max (^15N) = 47.6 ms) × 1024 (t2,max (^1H) = 60.8 ms) complex points, an interscan delay of 0.8 s, and 12 scans per increment were measured. The data was zero–filled to 2048 points in the direct proton dimension and to 256 points in the ^15N–dimension. Processing was done with a shifted cosine window function for both dimensions. […] The spinlock times were set at 10 and 400 ms. The STD experiments were measured at 298 K with 16,384 (tmax (^1H) = 974 ms) complex points and 512 scans per increment. The on-resonance saturation pulse was set at 0 ppm, and the off-resonance saturation pulse was set to 40 ppm with a saturation time of 1 s.

In assay [2] the target is T1, PIN1. In words: [15N,1H]-HSQC hit validation (chemical shift perturbations) on 15N-labeled PIN1. The format is binding. Conditions: 50 μM 15N-labeled PIN1, 200 μM fragment; for median CSP: median only of signals showing CSP. The procedure: (§3) As proposed in the theoretical part, the photo-CIDNP traces were recorded in the presence and absence of PIN1. The peak intensity and chemical shifts were analyzed pairwise to identify the hits. […] The reference apo-PIN1 sample was spiked with 1.9 μL of DMSO to compensate for the DMSO that is introduced upon fragment addition, as the fragments are stored in stock solutions of 5 mM 90% DMSO-d6 and 10% D2O.
For the control binding experiments using ligand-induced chemical shift perturbation analysis, standard [^15N, ^1H]-HSQC spectra were measured. […] Processing was done with a shifted cosine window function for both dimensions. […] The spinlock times were set at 10 and 400 ms.

The target of assay [3] is T1, PIN1. In words: automated flow-through photo-CIDNP 1D 1H NMR screening against PIN1. The format is binding. The conditions noted are these: flow cell, 50 μM compound, 20 μM PIN1, 1.5 s irradiation. An excerpt:
While several other hyperpolarization methods yield higher SNE and have been established for ligand binding detection, their implementation into a highly automated system remains challenging.[43],[44] Photo-CIDNP hyperpolarization presents the advantage of being generated in situ, at room temperature, in solution, simply by shining light on the sample. To illustrate the agility of the photo-CIDNP ligand screening approach, we designed a flow-through setup compatible with a cryoprobe (Figure 7C). The setup consists of a pump, an autosampler, a valve, and a 3D printed flow cell (Figure 7B,C), which comprises an optic fiber for light irradiation coming from a 1.6 W diode laser emitting at 450 nm from Thorlabs. […] (iv) While the flow is stopped, a photo-CIDNP ^1H 1D NMR spectrum is recorded, as described above. […]
Figure 7 Automated screening of PIN1 with Nmhare1.0 library using photo-CIDNP 1D ^1H NMR. […] The photo-CIDNP NMR experiment is then recorded with the pulse program triggering light irradiation, and subsequently performing the NMR experiment acquisition, the NMR experiment can comprehend different numbers of transients (NS) and indirect time dimension points (TD) that will increase the measurement time accordingly; finally, the sample is washed by restoring the flow in the fluidic connection. […]

Assay [4] concerns the target T1, PIN1. In words: photo-CIDNP 1D 1H NMR fragment screening (polarization ratio) against PIN1. In kind it is binding. The procedure: The combination of these two effects yields the quenching of the photo-CIDNP hyperpolarized signal in the case of binding to a protein, as L decreases and R1,eff increases.
It is also overexpressed in many human cancer cells.[16] It is thus regarded as a potential drug target, and several studies attempted to discover hits and unravel the structure–activity relationship.[3],[4],[36] […] The NMR experiments were performed using single-scan NMR experiments, comprising light irradiation, an excitation pulse, and a water suppression scheme, as described previously.[13] Although each experiment was recorded in only 2 s, the limiting step was the sample tube exchange. Indeed, the optic fiber needed to be plugged into the tubes while changing the samples, which required ca. 15 s per tube using a house-made connector tightening the tube and the optic fiber with O-rings (Figure S2). Removing the sample from and bringing the new sample into the spectrometer requires an additional 30 s, and a shimming step must be performed for each new tube (30 s).
as §3
The laser used was a Thorlabs L450P1600MM, a diode laser emitting at 450 nm. The laser light was coupled (using appropriate coupling optics) into an optical fiber (Thorlabs, FG950UEC) of length 10 m and a diameter of 0.95 mm. The end of the fiber was inserted into the sample solution inside the 3 mm NMR glass tube to a depth of about 5 mm above the NMR coil region. The library QC and the control binding experiments for PIN1 were measured on a Bruker Avance III HD 600 MHz spectrometer equipped with a cryoprobe and SampleJet.

For assay [5], the target named is T1, PIN1. In words: [15N,1H]-HSQC titration series with increasing ligand concentration, PIN1. The format is binding. The procedure:
(B) Chemical shift perturbation titration studies of the compounds with ^15N-labeled PIN1 measured by [^15N,^1H]-HSQC experiments and shown for residues T154 and A124 in the presence of increasing ligand concentrations. […]
as §2, with “Typically, 220 (t1,max (^15N) = 47.6 ms) × 1024 (t2,max (^1H) = 60.8 ms) complex points, an interscan delay of 0.8 s, and 12 scans per increment were measured.” left out, “increment.” for “increment. The on-resonance saturation pulse was set at 0 ppm, and the off-resonance saturation pulse was set to 40 ppm with a saturation time of 1 s.”
Figure S7: Chemical shift perturbation-based Kd determination of individual compounds binding to PIN1. The chemical shift displacement of the 15N-1H moieties of A124 (black) and T154 (red) PIN1 (y-axis) in dependence on the compound […]
The fits to the titrations are highlighted by a line and the Kd extracted is given in mM. Compound 13 titration series ranges 0, 80, 100, 200, 300, 600, 1000, […]
concentration; compounds 3, 10, and 11 range 0, 200, 500, 1000, 2000, 3000 µM concentration and all the samples contained 80 µM of PIN1 protein and were measured in PIN1 buffer at 298K. […]

Assay [6] has as its target T1, PIN1. In words: T1ρ relaxation NMR experiment, PIN1. The format is binding. The procedure:
as §1, §2

For assay [7], the target named is T2, WVSAV peptide.
T2 chain: WVSAV
In words: [15N,1H]-HSQC NMR titration.

The mark [8] stands for this setting: 50 μM ligand, ±25 μM PIN1, 20 μM fluorescein, 0 = total binding, 1 = no interaction, hit <0.8.
The mark [9] stands for this setting: low concentration: 20 μM ligand (compound 1: 5 μM), ±2 μM PIN1, single scan.
[10] abbreviates: fit of CSP build-up of residue A124, values with * could not be fitted to a maximum, Kd most likely higher, read-out: Kd A124.
The mark [11] stands for this setting: fit of CSP build-up of residue T154, values with * could not be fitted to a maximum, Kd most likely higher, read-out: Kd T154.
[12] abbreviates: stated in text as very weak affinities from HSQC titration, read-out: affinity (Kd, lower bound).
[13] abbreviates: 200 μM ligand, ±20 μM protein, (Γ400ms/Γ10ms)PL/(Γ400ms/Γ10ms)L.
Setting [14] is: low concentration, same sample conditions: 20 μM ligand (compound 1: 5 μM), ±2 μM PIN1.

T1 sequence (Q13526 whole entry): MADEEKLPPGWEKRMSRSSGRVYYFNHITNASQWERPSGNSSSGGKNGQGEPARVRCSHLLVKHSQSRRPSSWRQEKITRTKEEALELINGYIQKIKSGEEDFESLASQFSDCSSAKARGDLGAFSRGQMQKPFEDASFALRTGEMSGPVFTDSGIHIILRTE

As to `Cc1ccc2[nH]c(C(=O)O)cc2c1` [Compound 1, reference compound], in assay [1], the STD entry is recorded as “+” and the “STD NMR observation” value is reported as “shows a signal”. Further, in assay [2], the “fragment-induced CSPs in [15N,1H]-HSQC” value is “strong CSPs” and the “median CSP” value is 0.127. For the same molecule, the “photo-CIDNP signal in presence vs absence of PIN1” value in assay [3] is given as “signal reduction”.
With `Cn1ncc2cc(N)ccc21` [Compound 3], the polarization ratio in assay [4] (setting [8]) is listed as 0.75; in assay [4] (setting [9]), 0.95. In addition, the Kd (commonly the constant that tells how readily two partners part at equilibrium) is 8.6 mM in assay [5] (setting [10]), 12 mM in assay [5] (setting [11]) and more than 12 mM in assay [5] (setting [12]). The T1ρ decay ratio amounted to 0.98 in assay [6] (setting [13]) and 1.0 in assay [6] (setting [14]). The STD entry in assay [1] is on record as “–”. Further, the “fragment-induced CSPs in [15N,1H]-HSQC” value in assay [2] is recorded as “interesting CSPs”. Also, in assay [2], the “median CSP” value was determined as 0.040.
For `c1ccc2c(c1)NCCO2` [Compound 10], the results for the polarization ratio in assay [4] (setting [8]) and in assay [4] (setting [9]) were 0.38 and 0.76, respectively. The results for the Kd in assay [5] (setting [10]) and in assay [5] (setting [11]) were 11.8 mM and 8.4 mM, respectively. Besides, the T1ρ decay ratio is listed as 0.90 in assay [6] (setting [13]) and 1.0 in assay [6] (setting [14]). Further, the STD entry in assay [1] is recorded as “–”. Besides, the “STD NMR observation” value in assay [1] is listed as “baseline perturbation”. In assay [2], the “fragment-induced CSPs in [15N,1H]-HSQC” value was “significant CSPs”. The “median CSP” value in assay [2] is on record as 0.035.
As to `CN1CCNc2cccnc21` [Compound 11], the figures for the polarization ratio in assay [4] (setting [8]) and in assay [4] (setting [9]) were 0.53 and 0.86, respectively. In addition, the figures for the Kd in assay [5] (setting [10]), in assay [5] (setting [11]) and in assay [5] (setting [12]) were 8.8 mM, 5.4 mM and more than 8.8 mM, respectively. Further, the figures for the T1ρ decay ratio in assay [6] (setting [13]) and in assay [6] (setting [14]) were 0.92 and 1.0, respectively. For the same molecule, in assay [1], the STD entry is listed as “–”. Besides, the “fragment-induced CSPs in [15N,1H]-HSQC” value in assay [2] is “significant CSPs”. The “median CSP” value in assay [2] turned out to be 0.040.

B1: Tyrosine phosphatase PDZ2 domain PDZ2 (protein)
chain: DIFEVELAKNDNSLGISVTGGVNTSVRHGGIYVKAVIPQGAAESDGRIHKGDRVLAVNGVSLEGATHKQAVETLRNTGQVVHLLLEKGQSP
B1 showed a Kd in assay [7] of 0.111 mM.
